In publication PMC5596636 (ACS chemical neuroscience, 2016):

Columns and labels:
rMC3R = conditions: HEK293 cells expressing the rMC3R; relative to α-MSH; cited from earlier work
mMC1R [1] = biological target: T1, mMC1R (Mus musculus, UniProt Q01727); conditions: B16 murine melanoma cells; relative to α-MSH; cited from earlier work
mMC1R [2] = biological target: T1, mMC1R; assay: cAMP-based β-galactosidase reporter agonist assay in HEK293 cells, mMC1R; conditions: EC50 of substituted peptide divided by EC50 of α-MSH; potency loss
mMC3R = mMC3R (Mus musculus, UniProt P33033); assay: cAMP-based β-galactosidase reporter agonist assay in HEK293 cells, mMC3R
mMC5R = mMC5R (Mus musculus, UniProt P41149); assay: cAMP-based β-galactosidase reporter agonist assay in HEK293 cells, mMC5R; conditions: for mMC5R fold difference: EC50 of substituted peptide divided by EC50 of α-MSH, potency loss
mMC4R = mMC4R (Mus musculus, UniProt P56450); assay: cAMP-based β-galactosidase reporter agonist assay in HEK293 cells, mMC4R; conditions: for mMC4R fold difference: EC50 of substituted peptide divided by EC50 of α-MSH, potency loss
mMC1R [3] = biological target: T1, mMC1R; conditions: B16 murine melanoma cells; relative to α-MSH; cited from earlier work; remark: listed apart in the source

mMC3R, sequence (P33033 whole entry): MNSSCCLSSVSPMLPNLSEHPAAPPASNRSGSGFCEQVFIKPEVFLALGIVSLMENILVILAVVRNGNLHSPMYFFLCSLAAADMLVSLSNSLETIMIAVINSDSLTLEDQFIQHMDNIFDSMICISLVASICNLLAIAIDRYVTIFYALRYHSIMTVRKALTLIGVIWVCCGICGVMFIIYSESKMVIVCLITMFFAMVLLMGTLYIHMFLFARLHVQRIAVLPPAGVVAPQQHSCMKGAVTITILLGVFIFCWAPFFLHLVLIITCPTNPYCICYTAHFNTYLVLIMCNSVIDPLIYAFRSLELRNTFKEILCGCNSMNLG
mMC4R, sequence (P56450 whole entry): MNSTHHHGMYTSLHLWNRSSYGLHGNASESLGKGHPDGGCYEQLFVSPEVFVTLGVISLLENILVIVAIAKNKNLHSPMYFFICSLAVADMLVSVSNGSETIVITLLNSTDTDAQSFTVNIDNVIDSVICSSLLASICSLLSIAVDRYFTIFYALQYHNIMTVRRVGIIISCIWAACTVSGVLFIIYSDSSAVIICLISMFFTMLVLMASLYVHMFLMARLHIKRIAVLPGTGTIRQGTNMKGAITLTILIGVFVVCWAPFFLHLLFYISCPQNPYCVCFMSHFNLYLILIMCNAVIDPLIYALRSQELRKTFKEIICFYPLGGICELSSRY
T1 sequence (Q01727 whole entry): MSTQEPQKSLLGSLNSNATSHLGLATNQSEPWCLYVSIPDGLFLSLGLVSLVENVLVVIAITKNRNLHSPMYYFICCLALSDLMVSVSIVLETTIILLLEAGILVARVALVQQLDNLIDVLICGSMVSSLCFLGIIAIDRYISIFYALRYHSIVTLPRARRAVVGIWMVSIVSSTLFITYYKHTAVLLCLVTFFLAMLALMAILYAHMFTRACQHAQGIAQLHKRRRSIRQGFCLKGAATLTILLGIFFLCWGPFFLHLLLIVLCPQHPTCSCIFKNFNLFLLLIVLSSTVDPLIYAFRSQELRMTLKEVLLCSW
mMC5R, sequence (P41149 whole entry): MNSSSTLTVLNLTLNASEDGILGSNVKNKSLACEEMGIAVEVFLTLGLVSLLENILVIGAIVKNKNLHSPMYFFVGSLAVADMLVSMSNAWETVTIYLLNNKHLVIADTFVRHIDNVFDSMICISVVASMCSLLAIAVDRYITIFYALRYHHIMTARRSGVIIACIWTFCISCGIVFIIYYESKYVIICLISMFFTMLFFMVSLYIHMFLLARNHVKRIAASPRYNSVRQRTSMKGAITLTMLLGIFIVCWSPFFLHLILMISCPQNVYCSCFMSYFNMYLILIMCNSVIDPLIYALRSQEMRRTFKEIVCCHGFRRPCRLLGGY

Row | Compound | fold decreased binding affinity at the rMC3R (rMC3R) | fold decreased binding affinity at the mMC1R (mMC1R [1]) | mMC1R fold difference (mMC1R [2]) [fold] | EC50 (mMC3R) [µM] | mMC5R fold difference (mMC5R) | mMC4R fold difference (mMC4R) | fold decreased tyrosinase potency at the mMC1R (mMC1R [3]) | fold more potent at the mMC3R compared to α-MSH (mMC3R; increased potency relative to α-MSH) [fold] | selectivity for the mMC3R over the mMC1R (mMC3R; from agonist EC50 values) [fold] | selectivity for the mMC5R over the mMC1R (mMC5R; from agonist EC50 values) [fold] | selectivity for the mMC4R over the mMC1R (mMC4R; from agonist EC50 values) [fold]
1 | CSCC[C@H](NC(=O)[C@H](CO)NC(=O)[C@H](Cc1ccc(O)cc1)NC(=O)[C@H](C)NC(C)=O)C(=O)N[C@@H](CCC(=O)O)C(=O)N[C@@H](Cc1c[nH]cn1)C(=O)N[C@@H](Cc1ccccc1)C(=O)N[C@@H](CCCNC(=N)N)C(=O)N[C@@H](Cc1c[nH]c2ccccc12)C(=O)NCC(=O)N[C@@H](CCCCN)C(=O)N1CCC[C@H]1C(=O)N[C@H](C(N)=O)C(C)C [[Ala^1]α-MSH] | did not affect | did not affect | 5 | 0.0174 ± 0.0104 | no differences | no differences | did not affect |  |  |  | 
2 | CSCC[C@H](NC(=O)[C@H](CO)NC(=O)[C@H](C)NC(=O)[C@H](CO)NC(C)=O)C(=O)N[C@@H](CCC(=O)O)C(=O)N[C@@H](Cc1c[nH]cn1)C(=O)N[C@@H](Cc1ccccc1)C(=O)N[C@@H](CCCNC(=N)N)C(=O)N[C@@H](Cc1c[nH]c2ccccc12)C(=O)NCC(=O)N[C@@H](CCCCN)C(=O)N1CCC[C@H]1C(=O)N[C@H](C(N)=O)C(C)C [[Ala^2]α-MSH] | 7 fold | equipotent | 7 | 0.00642 ± 0.00256 |  |  | equipotent | 4 |  |  | 
3 | CSCC[C@H](NC(=O)[C@H](C)NC(=O)[C@H](Cc1ccc(O)cc1)NC(=O)[C@H](CO)NC(C)=O)C(=O)N[C@@H](CCC(=O)O)C(=O)N[C@@H](Cc1c[nH]cn1)C(=O)N[C@@H](Cc1ccccc1)C(=O)N[C@@H](CCCNC(=N)N)C(=O)N[C@@H](Cc1c[nH]c2ccccc12)C(=O)NCC(=O)N[C@@H](CCCCN)C(=O)N1CCC[C@H]1C(=O)N[C@H](C(N)=O)C(C)C [[Ala^3]α-MSH] | equipotent | equipotent | 26 | 0.0121 ± 0.00635 | within experimental error | within experimental error | equipotent |  |  |  | 
4 | CC(=O)N[C@@H](CO)C(=O)N[C@@H](Cc1ccc(O)cc1)C(=O)N[C@@H](CO)C(=O)N[C@@H](C)C(=O)N[C@@H](CCC(=O)O)C(=O)N[C@@H](Cc1c[nH]cn1)C(=O)N[C@@H](Cc1ccccc1)C(=O)N[C@@H](CCCNC(=N)N)C(=O)N[C@@H](Cc1c[nH]c2ccccc12)C(=O)NCC(=O)N[C@@H](CCCCN)C(=O)N1CCC[C@H]1C(=O)N[C@H](C(N)=O)C(C)C [[Ala^4]α-MSH] | 14 fold | 140 fold | 400 | 0.0174 ± 0.00612 | did not alter potency | 5 fold | 59 fold |  | 710 | 210 | 100
5 | CSCC[C@H](NC(=O)[C@H](CO)NC(=O)[C@H](Cc1ccc(O)cc1)NC(=O)[C@H](CO)NC(C)=O)C(=O)N[C@@H](CCC(=O)O)C(=O)N[C@@H](Cc1c[nH]cn1)C(=O)N[C@@H](Cc1ccccc1)C(=O)N[C@@H](CCCNC(=N)N)C(=O)N[C@@H](Cc1c[nH]c2ccccc12)C(=O)NCC(=O)N[C@@H](CCCCN)C(=O)N[C@@H](C)C(=O)N[C@H](C(N)=O)C(C)C [[Ala^12]α-MSH] |  | 10 fold |  | 0.043 ± 0.014 |  |  |  |  |  |  | 
